From patent US20050220779A1, “Integrin linked kinase modulation of macrophage activation” (priority 2001, published 2005) come the findings set out here.

Broadly, the inhibition is the change of the read-out against control, counted positive when it falls.

In one series the test system is iNOS. Put plainly: iNOS protein expression in LPS-IFN-γ stimulated macrophages (western blot). Format: cell-based, murine. Particulars: LPS-IFN-γ stimulated macrophages, western blot. On the procedure: Western blot analysis. After incubation with the indicated stimuli in the presence of ILK inhibitors, cells (duplicate samples, 2×10^6cell/6-wells plate) were washed in PBS and lysed on ice in 60 μl of lysis buffer. The protein content of each sample was determined using the Bradford protein assay kit (Bio-Rad, Richmond, Calif.). Absorbance was measured at 750 nm with a Beckman DU530 spectrophotometer (Palo Alto, Calif.). Proteins were mixed with […] sample buffer. Following separation of proteins by SDS-PAGE, using 8% bis-acrylamide in the separation gel, the proteins were transferred from the gels onto PVDF membranes using a MiniProtean III Cell (Bio-Rad), at 100 V for 1.5 h. Equal amounts of protein (5 μg) were loaded onto SDS-PAGE gels and examined by Western blot analysis with anti-Actin, anti-iNOS, anti-COX-2 murine monoclonal antibodies according to the manufacturers specifications (Transduction Laboratories). Primary Abs, in 5% blocking buffer (5% NFM/TTBS), were incubated with blots 2 h or overnight at 4° C., followed by incubation with peroxidase-conjugated secondary antibody. Chemiluminescence substrates were used to reveal positive bands. The bands were exposed on x-ray films. […] The Multi-Analyst/PC system from Biorad is being used to quantitate the bands of the expressed protein on the film. […] White light is chosen as the selected light source, thus the signal strength is measured in OD (optic density) units. […]
Effects of ILK inhibitors on the LPS-IFN-γ-induced iNOS and COX-2 expression NO production requires that iNOS be enzymatically activity, therefore experiments were performed to examine whether the inhibitory effect of ILK inhibitors was mediated by […] iNOS protein synthesis or effects on the activity of existing enzyme. Stimulated cells were treated with ILK inhibitors (25 μM), and lysed 16 h later and a western blot analysis was performed to quantitate iNOS protein expression. […]

For series [1], the system named is BALB/c cells (primary peritoneal macrophages). Nature of the series: Cell survival by crystal violet staining, BALB/c cells. Format: cell-based. Particulars: 24 h, 50 μM. On the procedure: (§1) Treatment of primary macrophages and RAW 264.7 cells. […] Following 3 h incubation, at 37 C, 5% CO2 (macrophages were allowed to attach) cells were stimulated with LPS (0.5 μg/ml) and IFN-γ (100 U/ml) in the absence or presence of various concentrations of ILK inhibitors (all treatments were replicated six times). Cells were incubated for an additional 24 h, and cell free culture supernatants from each well were collected for NO and cytokine determination. The remaining cells were stained with crystal violet to determine effect of the inhibitors on cell survival.
Effect of ILK Inhibitors on suppression of NO production and cell survival. Twenty-four hours following treatment with the ILK inhibitors, aliquots from the cell-free supernatants were assayed for NO and IL-6 release. Surviving cells were stained and fixed (crystal violet 0.05% in 20% ethanol), to determine if the decrease in NO production was related to a decrease in cell number due to toxicity of the compounds.

For series [2], the system named is RAW 264.7 cells. Nature of the series: Cell survival by crystal violet staining, RAW 264.7 cells. Format: cell-based. As to conditions: 50 μM, 24 h, DMSO-treated = 100%. On the procedure:
(§2) Treatment of primary macrophages and RAW 264.7 cells. Primary macrophages (1.5×10^5 cells/well) and RAW 264.7 (4×10^4 cells/well) cells were grown in 96-well plates (nitrite assay), or 6-well plates (2×10^6 cells/well) for measurement of iNOS and COX-2 expression. Following 3 h incubation, at 37 C, 5% CO2 (macrophages were allowed to attach) cells were stimulated with LPS (0.5 μg/ml) and IFN-γ (100 U/ml) in the absence or presence of various concentrations of ILK inhibitors (all treatments were replicated six times). Cells were incubated for an additional 24 h, and cell free culture supernatants from each well were collected for NO and cytokine determination. The remaining cells were stained with crystal violet to determine effect of the inhibitors on cell survival.
Effect of ILK Inhibitors on suppression of NO production and cell survival. Twenty-four hours following treatment with the ILK inhibitors, aliquots from the cell-free supernatants were assayed for NO and IL-6 release. Surviving cells were stained and fixed (crystal violet 0.05% in 20% ethanol), to determine if the decrease in NO production was related to a decrease in cell number due to toxicity of the compounds. […] Only those compounds that induced strong inhibition of NO release, and caused no significant cell death were selected for further evaluation.

For series [3], the system named is RAW 264.7 cells. Nature of the series: LPS-IFN-γ-induced macrophage NO production (Griess nitrite assay), RAW 264.7 cells. Format: cell-based, murine. Particulars: 24 h; for NO release (%): 50 μM, relative to DMSO treated cells; for inhibition at 50 µM: Mus musculus, RAW264.7, 50 μM. How it is done: RAW 264.7 cells. RAW 264.7 cells, a murine macrophage cell line, were obtained from American Type Culture Collection (ATCC, Manassas, Va.) and cultured in DMEM supplemented with 10% FCS. Each treatment was performed in triplicate wells. RAW 264.7 cells (Balb/c background) produce a significant amount of nitric oxide upon treatment with IFN-γ alone, but require LPS for full activation. This property makes their behavior more like that of normal macrophages obtained from commonly used strains of mice.
as §1
(§3) NO production. Following stimulation, the production of NO was determined by assaying culture supernatants for NO2^−, a stable reaction product of NO with molecular oxygen. Briefly, 100 μl of culture supernatant was reacted with an equal volume of Griess reagent at room temperature for 10 min. The absorbance at 550 nm was determined. All measurements were performed six times. The concentration of NO2^−was calculated by comparison with a standard curve prepared using NaNO2.
Effects of ILK inhibitors on LPS-IFN-γ-induced NO release. […] […] To compare the effect of the compounds across three different cell types, the NO release for each cell type was expressed relative to DMSO treated cells.
On the technique in general: The Griess reaction detects nitrite, a stable product of nitric oxide.

Series [4] has as its system BALB/c cells (primary peritoneal macrophages). Put plainly: LPS-IFN-γ-induced macrophage NO production (Griess nitrite assay), BALB/c cells. Format: cell-based, mouse. Particulars: 50 μM, 24 h; for NO release (%): relative to DMSO treated cells; for inhibition at 50 µM: Mus musculus, Peritoneal macrophage. On the procedure:
Isolation of primary mouse macrophages. Peritoneal exudate macrophages were isolated by peritoneal lavage with ice-cold sterile physiological saline 24 h after intraperitoneal injection of BALB/c and CB57BL/6 mice with 0.3 ml of sterile Zymosan A (1 mg/0.5 ml 0.9% saline). Cells were washed, resuspended in RPMI 1640 supplemented with 2 mM L-glutamine, 100 units/ml penicillin, 100 μg/ml streptomycin, and 5% FBS.
as §2, §3
Effects of ILK inhibitors on LPS-IFN-γ-induced NO release. […] […] To compare the effect of the compounds across three different cell types, the NO release for each cell type was expressed relative to DMSO treated cells. […] For example, macrophages from Balb/c and C57BL/6 mice responded similarly to the treatment with the compounds.

Structures are written as SMILES.

As to `N=C(N)N/N=C/c1ccc(Cl)cc1Cl` [KP-16735], in the series on iNOS, the “iNOS protein expression (in words)” value is on record as “significantly inhibited the expression of iNOS protein”. For the same molecule, the “Survival (%)” value is 73% in series [1] (BALB/c, mouse) and 51% in the series on RAW 264.7 cells [2]. The “NO release (%)” value in the series with RAW 264.7 cells [3] is given as 20.4%; in series [4], −4.2%. Also, the inhibition at 50 µM was 73% in the series with RAW 264.7 cells [3] and 106% in series [4].

In the case of `Oc1ccc2c(c1)CC1NCCc3cc(O)c(O)c-2c31` (centres unmarked) [KP-21849, 5,6,6a,7-Tetrahydro-4H-dibenzo[de,g]quinoline-1,2,9-triol], in the series with iNOS, the “iNOS protein expression (in words)” value is “significantly inhibited the expression of iNOS protein”. Moreover, the “Survival (%)” value in series [1] (BALB/c cells, DMSO-treated = 100%) is reported as 41%; in the series on RAW 264.7 cells [2], 51%. In addition, the entries for the “NO release (%)” value (in the series with RAW 264.7 cells [3]; in series [4]) were −0.1% and −4.2%, respectively. Moreover, the inhibition at 50 µM amounted to 100% in the series on RAW 264.7 cells [3] and 110% in series [4].
